In ChEMBL document CHEMBL1909588, “Synthesis and in vitro antitubercular evaluation of novel sansanmycin derivatives” (2011) one finds MIC data, which are given here for four molecules.

Structures are written as SMILES. Values after ≈ are worked out from the molar mass of the structure shown.

The test system of the experiment is Mycobacterium tuberculosis. The experiment in a line: Antitubercular activity against rifampicin and isoniazid-resistant Mycobacterium tuberculosis isolate 2199 after 24 hrs by microplate alamar blue assay. Format: functional. To be noted: isolate 2199, 24 h. In general terms: The colour change of resazurin is a common sign of viable cells or microbes.

As usually defined, the MIC is the lowest concentration found to suppress growth. Read a high MIC as a need for much substance. Molecule `CSCCC(NC(=O)NC(Cc1c[nH]c2ccccc12)C(=O)O)C(=O)NC(C(=O)N/C=C1\C[C@@H](O)[C@H](n2ccc(=O)[nH]c2=O)O1)C(C)N(C)C(=O)C(Cc1cccc(O)c1)NC(C)C` (some centres undefined) gave an MIC of 8 µg/mL (≈ 8.83 µM). Regarding `NNC(=O)c1ccncc1` [ISONIAZID], the MIC turned out to be 40 µg/mL (≈ 292 µM). Compared with the last molecule, the MIC is about 5-fold higher. `CO[C@H]1/C=C/O[C@@]2(C)Oc3c(C)c(O)c4c(O)c(c(/C=N/N5CCN(C)CC5)c(O)c4c3C2=O)NC(=O)/C(C)=C\C=C\[C@H](C)[C@H](O)[C@@H](C)[C@@H](O)[C@@H](C)[C@H](OC(C)=O)[C@@H]1C` [RIFAMPIN] showed an MIC of 20 µg/mL (≈ 24.3 µM). In turn, `CSCCC(NC(=O)NC(Cc1c[nH]c2ccccc12)C(=O)O)C(=O)NC(C(=O)N/C=C1\C[C@@H](O)[C@H](n2ccc(=O)[nH]c2=O)O1)C(C)N(C)C(=O)C(N)Cc1cccc(O)c1` (some centres undefined) [SANSANMYCIN A] showed an MIC of 32 µg/mL (≈ 37 µM).
